According to patent publication US5889148A, “Antibiotic peptides” (priority 1995, dated 1999):
In brackets after ≈: the same amount, converted by molar mass. Non-standard residues stand in square brackets, D forms with d. No end group written: not given here. Aib = CC(C)(N)C(=O)O

What was measured:
[1] = system: Candida albicans (ATCC 36232); assay: MIC test, antifungal activity; format: cell-based
Description: (§1) Antibacterial and antifungal activities of the peptides were determined by employing MIC test as follows:
(§2) To determine antifungal activity, a test organism Candida albicans (ATCC 36232) was cultured on Sabouraud dextrose agar plate for 24 to 48 hrs, and colonies thus grown were suspended on Sabouraud dextrose medium(Gibco, USA) to have O.D.530 =0.5(3×10^6 cells) and further diluted with 100-fold to have O.D.530 =0.005(3×10^4 cells). 100 μl of Candida albicans culture thus prepared was pipetted on 96-well microplates which had already contained 100 μl of a serially diluted peptide solution.

[2] = system: Staphylococcus aureus (ATCC 6538); assay: MIC test, antibacterial activity; format: cell-based
Description: as §1, §2
Antibacterial activity of peptide was determined analogously as above, with an exception that Staphylococcus aureus (ATCC 6538) selected as a test organism was cultured on M-3 medium(Gibco, USA) at 37° C. and cell number was adjusted to 2×10^8 cells before 100-fold dilution.

[3] = Table 3, addition of an amino acid to N-terminal of TED
[4] = Table 2, modification of N-terminal residues of TED
[5] = Table 1, peptide fragments of Tenecin
[6] = Table 4, addition of an amino acid to N-terminal of TEDF
[7] = Table 8, TEDFK derivatives of group 1
[8] = Table 7, comparison with Ketoconazole (Example 3)
[9] = Table 9, TEDFK derivatives of group 2
[10] = Table 11, enantiomer, retro-inverso, D-amino acid derivatives of M22
[11] = Table 6, substitution of Cys in TEDFK with Aib
[12] = Table 10, TEDFK derivatives of group 3

CC(=O)N1CCN(c2ccc(OCC3COC(Cn4ccnc4)(c4ccc(Cl)cc4Cl)O3)cc2)CC1 (stereo not shown) [Ketoconazole, reference compound]
MIC ([1]; Candida albicans, ATCC36232, Table 7, comparison with Ketoconazole (Example 3), read-out: MIC against C. albicans): 6 µg/mL (≈ 11.3 µM)

AYCNGKRVCVCR--NH2 (AYCNGKRVCVCR-NH2; cysteine pairing not given here) [TEDA]
MIC S. aureus [2, 3]: 10 µg/mL | MIC C. albicans [1, 3]: 10 µg/mL

CNGKRVCVCR--NH2 (CNGKRVCVCR-NH2; cysteine pairing not given here) [TED15]
MIC against C. albicans [1, 4]: > 500 µg/mL

DAACAAHHCLFR--NH2 (DAACAAHHCLFR-NH2; cysteine pairing not given here) [TEA]
MIC S. aureus [2, 5]: > 500 µg/mL | MIC C. albicans [1, 5]: > 100 µg/mL

DFYCNGKRVCVCR--NH2 (DFYCNGKRVCVCR-NH2; cysteine pairing not given here) [TEDFD]
MIC S. aureus [2, 6]: > 500 µg/mL | MIC C. albicans [1, 6]: > 500 µg/mL

DYCNGKRVCVCR--NH2 (DYCNGKRVCVCR-NH2; cysteine pairing not given here) [TEDD]
MIC S. aureus [2, 3]: 10 µg/mL | MIC C. albicans [1, 3]: 50 µg/mL

FFYCNGKRVCVCR--NH2 (FFYCNGKRVCVCR-NH2; cysteine pairing not given here) [TEDFF]
MIC S. aureus [2, 6]: 5 µg/mL | MIC C. albicans [1, 6]: 3 µg/mL

FKYCNGKRVCVCR--NH2 (FKYCNGKRVCVCR-NH2; cysteine pairing not given here) [M3]
MIC S. aureus [2, 7]: 12.7 µg/mL | MIC C. albicans [1, 7]: 12.5 µg/mL

FPYCNGKRVCVCR--NH2 (FPYCNGKRVCVCR-NH2; cysteine pairing not given here) [TEDFP]
MIC S. aureus [2, 6]: > 500 µg/mL | MIC C. albicans [1, 6]: > 500 µg/mL

FYCNGKRVCVCR--NH2 (FYCNGKRVCVCR-NH2; cysteine pairing not given here) [TEDF]
MIC S. aureus [2, 3]: 5 µg/mL | MIC S. aureus [2, 6]: 5 µg/mL | MIC C. albicans [1, 3]: 10 µg/mL | MIC C. albicans [1, 6]: 10 µg/mL

GKRVCVCR--NH2 (GKRVCVCR-NH2; cysteine pairing not given here) [TED11]
MIC against C. albicans [1, 4]: > 500 µg/mL

KCNGKRVCVCR--NH2 (KCNGKRVCVCR-NH2; cysteine pairing not given here) [TED18]
MIC against C. albicans [1, 4]: > 500 µg/mL

KFYCDGKRVCVCR--NH2 (KFYCDGKRVCVCR-NH2; cysteine pairing not given here) [M18]
MIC S. aureus [2, 7]: 12.7 µg/mL | MIC C. albicans [1, 7]: 12.5 µg/mL

KFYCKGKRVCVCR--NH2 (KFYCKGKRVCVCR-NH2; cysteine pairing not given here) [TEDFK-7]
MIC against C. albicans ([1]; Table 5, modification of TEDFK): 3 µg/mL | MIC against C. albicans [1, 8]: 3 µg/mL

KFYCNGKRICICR--NH2 (KFYCNGKRICICR-NH2; cysteine pairing not given here) [M13]
MIC S. aureus [2, 7]: 6.35 µg/mL | MIC C. albicans [1, 7]: 6.25 µg/mL

KFYCNGKRVCVCD--NH2 (KFYCNGKRVCVCD-NH2; cysteine pairing not given here) [TEDFK-11]
MIC against C. albicans ([1]; Table 5, modification of TEDFK): 5 µg/mL | MIC against C. albicans [1, 8]: 6 µg/mL

KFYCNGKRVCVCL--NH2 (KFYCNGKRVCVCL-NH2; cysteine pairing not given here) [TEDFK-10]
MIC against C. albicans ([1]; Table 5, modification of TEDFK): 5 µg/mL | MIC against C. albicans [1, 8]: 6 µg/mL

KFYCNGKRVCVCR--NH2 [TEDFK-8] (KFYCNGKRVCVCR-NH2; cysteine pairing not given here)
MIC against C. albicans ([1]; Table 5, modification of TEDFK): 5 µg/mL | MIC against C. albicans [1, 8]: 6 µg/mL

KFYCNGKRVCVCR--NH2 [TEDFK] (KFYCNGKRVCVCR-NH2; cysteine pairing not given here)
MIC S. aureus [2, 6]: 5 µg/mL | MIC S. aureus [2, 7]: 6.25 µg/mL | MIC S. aureus [2, 9]: 6.25 µg/mL | MIC S. aureus [2, 10]: 6.25 µg/mL | MIC C. albicans [1, 6]: 3 µg/mL | MIC against C. albicans ([1]; Table 5, modification of TEDFK): 3 µg/mL | MIC against C. albicans [1, 11]: 3 µg/mL | MIC C. albicans [1, 7]: 6.25 µg/mL | MIC C. albicans [1, 9]: 6.25 µg/mL | MIC against C. albicans [1, 12]: 6.25 µg/mL | MIC C. albicans [1, 10]: 6.25 µg/mL

KFYCNGKRVCVCW--NH2 (KFYCNGKRVCVCW-NH2; cysteine pairing not given here) [M31]
MIC S. aureus [2, 7]: 12.7 µg/mL | MIC C. albicans [1, 7]: 12.5 µg/mL

KFYCNGKRVCV[Aib]R-NH2 (cysteine pairing not given here) [TEDFK-3A]
MIC against C. albicans [1, 11]: 20 µg/mL | MIC against C. albicans [1, 8]: 12 µg/mL

KFYCNGKRV[Aib]VCK-NH2 (cysteine pairing not given here) [M25]
MIC S. aureus [2, 7]: 6.35 µg/mL | MIC C. albicans [1, 7]: 6.25 µg/mL

KFYCNGKRV[Aib]VCR-NH2 (cysteine pairing not given here) [TEDFK-2A]
MIC against C. albicans [1, 11]: 5 µg/mL | MIC against C. albicans [1, 8]: 6 µg/mL

KFYCNGRVCVCR--NH2 (KFYCNGRVCVCR-NH2; cysteine pairing not given here) [TEDFK-2]
MIC against C. albicans ([1]; Table 5, modification of TEDFK): 5 µg/mL | MIC against C. albicans [1, 8]: 6 µg/mL

KFYCNKKRVCVCR--NH2 (KFYCNKKRVCVCR-NH2; cysteine pairing not given here) [TEDFK-5]
MIC against C. albicans ([1]; Table 5, modification of TEDFK): 5 µg/mL | MIC against C. albicans [1, 8]: 3 µg/mL

KFYCNKRVCVCR--NH2 (KFYCNKRVCVCR-NH2; cysteine pairing not given here) [TEDFK-1]
MIC against C. albicans ([1]; Table 5, modification of TEDFK): 5 µg/mL

KFYCNLKRVCVCR--NH2 (KFYCNLKRVCVCR-NH2; cysteine pairing not given here) [TEDFK-4]
MIC against C. albicans ([1]; Table 5, modification of TEDFK): 5 µg/mL

KFYCNPGPVCVCR--NH2 (KFYCNPGPVCVCR-NH2; cysteine pairing not given here) [TEDFK-9]
MIC against C. albicans ([1]; Table 5, modification of TEDFK): 20 µg/mL | MIC against C. albicans [1, 8]: 12 µg/mL

KFYCNPKRVCVCR--NH2 (KFYCNPKRVCVCR-NH2; cysteine pairing not given here) [TEDFK-3]
MIC against C. albicans ([1]; Table 5, modification of TEDFK): 5 µg/mL | MIC against C. albicans [1, 8]: 6 µg/mL

KFYCNWKRVCVCR--NH2 (KFYCNWKRVCVCR-NH2; cysteine pairing not given here) [M30]
MIC S. aureus [2, 7]: 12.7 µg/mL | MIC C. albicans [1, 7]: 12.5 µg/mL

KFYCVGKRVCVCR--NH2 (KFYCVGKRVCVCR-NH2; cysteine pairing not given here) [TEDFK-6]
MIC against C. albicans ([1]; Table 5, modification of TEDFK): 5 µg/mL | MIC against C. albicans [1, 8]: 6 µg/mL

KFY[Aib]KGKRVCVCR-NH2 (cysteine pairing not given here) [M17]
MIC S. aureus [2, 7]: 6.35 µg/mL | MIC C. albicans [1, 7]: 6.25 µg/mL

KFY[Aib]KKVCVCK-NH2 (cysteine pairing not given here) [M8]
MIC S. aureus [2, 7]: 3.16 µg/mL | MIC C. albicans [1, 7]: 3.12 µg/mL

KFY[Aib]NGKRVCVCR-NH2 (cysteine pairing not given here) [TEDFK-1A]
MIC against C. albicans [1, 8]: 2 µg/mL

KGKRVCVCR--NH2 (KGKRVCVCR-NH2; cysteine pairing not given here) [TED12]
MIC against C. albicans [1, 4]: > 500 µg/mL

KKYCNGKRVCVCR--NH2 (KKYCNGKRVCVCR-NH2; cysteine pairing not given here) [M1]
MIC S. aureus [2, 7]: 3.16 µg/mL | MIC C. albicans [1, 7]: 3.12 µg/mL

KKYCNKKCVCK--NH2 [M5] (KKYCNKKCVCK-NH2; cysteine pairing not given here)
MIC S. aureus [2, 7]: 3.16 µg/mL | MIC C. albicans [1, 7]: 3.12 µg/mL

KKYIVFVFK--NH2 (KKYIVFVFK-NH2) [M33]
MIC against C. albicans [1, 12]: 3.12 µg/mL

LCNGKRVCVCR--NH2 (LCNGKRVCVCR-NH2; cysteine pairing not given here) [TED17]
MIC against C. albicans [1, 4]: 100 µg/mL
